{
  "source": "patent US8022095B2",
  "about": "“Methods of treating headaches using 5-HT agonists in combination with long-acting NSAIDs” (Pozen, Inc., priority 1996, dated 2011)",
  "key": {"[1]": {"conditions": "cited from earlier work; for time of peak plasma concentration after oral administration: oral dosing; for half-life: pharmacokinetic / plasma half-life; for lead time to peak plasma levels: list follows the words 'intramuscular routes will generally have shorter lead times to peak plasma levels'"}, "[2]": {"tested_on": "migraine", "test": "Comparison of MT 400, triptan alone, NSAID alone and placebo in migraine patients", "type": "in vivo, human", "conditions": "for % with nausea / % with phonophobia / % with photophobia / Number with nausea / Number with phonophobia / Number with photophobia: at 2 hours; for Number with nausea / Number with phonophobia / Number with photophobia / Sustained Response (Sustained Pain Response), number of subjects / Sustained Pain Free responders, number of subjects: N = 250 / 229 / 247; for patients with improvement from moderate or severe pain at baseline to mild or no pain: at two hours; for Sustained Response (Sustained Pain Response), number of subjects: initial pain response without return of pain for 24 hours; for Sustained Pain Free responders, number of subjects: pain score 0 at 2 hours and from 2 to 24 hours without rescue; for therapeutic gain, Sustained Pain Free / therapeutic gain over placebo, sustained response / therapeutic gain over placebo, pain response: response rate minus placebo response; for therapeutic gain over placebo, sustained response: 24 hours; for therapeutic gain over placebo, pain response: pain response at two hours; for Sustained Response (Sustained Pain Response), percentage of subjects: initial pain response without return of pain for 24 hours after dosing", "method": "In these experiments, a comparison was made between: patients administered triptan alone; patients administered NSAID alone; patients administered a combination of triptan and NSAID (“MT400”); and, in some cases, patients administered a placebo.\nSustained response was evaluated based upon the number of patients that experience an initial pain response without a return of pain for the 24 hours after dosing.\nThe most desirable outcome for the treatment of migraine is that the pain be eliminated quickly and not return. This outcome measure is termed Sustained Pain Free. Responders are defined as patients having a pain score of 0 at 2 hours and nothing more than 0 from 2 to 24 hours post dose without the need for rescue.\nAs migraine is a pathological complex characterized by unilateral headache, often accompanied by associated symptoms of nausea, photophobia and phonophobia, efficacy against these other parameters is important in evaluating the efficacy of a drug candidate."}, "[3]": {"target": "T1, COX-2 (Homo sapiens, UniProt P35354)", "T1 sequence (P35354 18-604)": "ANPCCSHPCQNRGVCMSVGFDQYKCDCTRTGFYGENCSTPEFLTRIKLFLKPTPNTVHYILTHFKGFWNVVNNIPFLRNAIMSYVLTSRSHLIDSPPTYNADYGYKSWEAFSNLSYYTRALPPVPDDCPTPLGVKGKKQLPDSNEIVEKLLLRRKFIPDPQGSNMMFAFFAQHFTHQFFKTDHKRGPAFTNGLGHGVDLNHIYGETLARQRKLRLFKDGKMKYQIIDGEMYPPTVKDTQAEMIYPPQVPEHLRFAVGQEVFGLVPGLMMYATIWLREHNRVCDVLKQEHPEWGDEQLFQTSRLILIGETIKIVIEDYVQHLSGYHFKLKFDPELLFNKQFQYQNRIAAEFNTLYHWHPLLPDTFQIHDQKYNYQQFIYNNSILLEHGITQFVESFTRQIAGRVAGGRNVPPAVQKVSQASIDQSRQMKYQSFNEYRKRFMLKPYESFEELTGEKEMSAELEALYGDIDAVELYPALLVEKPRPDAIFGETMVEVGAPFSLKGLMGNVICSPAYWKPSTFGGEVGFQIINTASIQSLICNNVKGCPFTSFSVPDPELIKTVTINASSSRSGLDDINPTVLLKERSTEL", "conditions": "reported (Feldman 2000; Sengupta 1999); cited from earlier work"}, "[4]": {"tested_on": "migraine attack", "method": "Headache relief at two hours was determined in a manner identical to that described above, but the relapse and sustained response rates were calculated based solely on a return of moderate or severe headache pain (i.e., no “rescue medication” protocol was used as a separate indicator of relapse)."}, "[5]": {"tested_on": "migraine attacks", "test": "Open-label, randomized out-patient study, 16 migraine patients with high relapse rate, two successive migraine attacks", "type": "in vivo, human", "method": "Headache pain was assessed by the patients on a 4-point scale (no pain, mild pain, moderate pain, or severe pain). Each patient was treated for two migraine attacks of moderate or severe intensity at baseline and pain scores were recorded every 30 minutes for the first two hours following dosing and at 3, 4, 6, 12 and 24 hours post-dose. “Relapse” was defined to occur in those patients who responded with an adequate reduction in headache pain (moderate or severe at baseline, reduced to no pain or mild pain) at 2 hours after administration and, in whom, over the next 22 hours either: (a) headache pain returned to moderate or severe intensity; or (b) “rescue medication” was required to treat the recurrent headache pain."}},
  "note": "Like-named read-outs stand apart in the source and are kept apart here.",
  "data": [
    {"smiles": "Cc1ccc(-c2cc(C(F)(F)F)nn2-c2ccc(S(N)(=O)=O)cc2)cc1", "note": "[Celecoxib, celecoxib]", "values": [
      {"measurement": "time of peak plasma concentration after oral administration", "setting": "[1]", "result": "approximately 3 hours"},
      {"measurement": "half-life", "setting": "[1]", "result": "approximately 11 hours"}
    ]},
    {"smiles": "CNS(=O)(=O)Cc1ccc2[nH]cc(CCN(C)C)c2c1", "note": "[Imitrex, sumatriptan succinate]", "values": [
      {"measurement": "% with nausea", "setting": "[2]", "result": "(31.9%)"},
      {"measurement": "% with phonophobia", "setting": "[2]", "result": "(44.5%)"},
      {"measurement": "% with photophobia", "setting": "[2]", "result": "(50.2%)"},
      {"measurement": "Number with nausea", "setting": "[2]", "result": 73},
      {"measurement": "Number with phonophobia", "setting": "[2]", "result": 102},
      {"measurement": "Number with photophobia", "setting": "[2]", "result": 115},
      {"measurement": "patients with improvement from moderate or severe pain at baseline to mild or no pain", "setting": "[2]", "result": 49, "unit": "%"},
      {"measurement": "Sustained Response (Sustained Pain Response), number of subjects", "setting": "[2]", "result": 66},
      {"measurement": "Sustained Pain Free responders, number of subjects", "setting": "[2]", "result": 25},
      {"measurement": "therapeutic gain, Sustained Pain Free", "setting": "[2]", "result": 5.9, "unit": "%"},
      {"measurement": "therapeutic gain over placebo, sustained response", "setting": "[2]", "result": 12, "unit": "%"},
      {"measurement": "therapeutic gain over placebo, pain response", "setting": "[2]", "result": 22, "unit": "%"}
    ]},
    {"smiles": "CCc1cccc2c3c([nH]c12)C(CC)(CC(=O)O)OCC3", "note": "(stereo not shown) [etodolac]", "values": [
      {"measurement": "specificity for COX-2", "setting": "[3]", "result": "highly specific for COX-2"},
      {"measurement": "half-life", "setting": "[1]", "result": "about 7 hours"}
    ]},
    {"smiles": "CC(C(=O)O)c1ccc(-c2ccccc2)c(F)c1", "note": "(stereo not shown) [flurbiprofen]", "values": [
      {"measurement": "half-life", "setting": "[1]", "result": "about 6 hours"}
    ]},
    {"smiles": "COc1ccc2c(c1)c(CC(=O)O)c(C)n2C(=O)c1ccc(Cl)cc1", "note": "[indomethacin]", "values": [
      {"measurement": "lead time to peak plasma levels", "setting": "[1]", "result": "1 to 4", "unit": "h"}
    ]},
    {"smiles": "O=C(c1ccccc1)c1ccc2n1CCC2C(=O)O", "note": "(stereo not shown) [ketorolac]", "values": [
      {"measurement": "half-life", "setting": "[1]", "result": "8 to 9", "unit": "h"}
    ]},
    {"smiles": "CN1C(C(=O)Nc2ccccn2)=C(O)c2sc(Cl)cc2S1(=O)=O", "note": "[lornoxicam]", "values": [
      {"measurement": "time of peak plasma concentration after oral administration", "setting": "[1]", "result": "approximately two"},
      {"measurement": "half-life", "setting": "[1]", "result": "about 4 hours"},
      {"measurement": "half-life", "setting": "[1]; listed as Lornoxicam", "result": "approximately 4 hours"}
    ]},
    {"smiles": "Cc1ccc(Cl)c(Nc2ccccc2C(=O)O)c1Cl", "note": "[meclofenamate, Meclofenamate sodium]", "values": [
      {"measurement": "lead time to peak plasma levels", "setting": "[1]", "result": "0.5 to 1", "unit": "h"}
    ]},
    {"smiles": "Cc1cccc(Nc2ccccc2C(=O)O)c1C", "note": "[mefenamic acid]", "values": [
      {"measurement": "specificity for COX-2", "setting": "[3]", "result": "highly specific for COX-2"},
      {"measurement": "half-life", "setting": "[1]", "result": "up to 4 hours"}
    ]},
    {"smiles": "COc1ccc2cc(CCC(C)=O)ccc2c1", "note": "[nabumetone]", "values": [
      {"measurement": "lead time to peak plasma levels", "setting": "[1]", "result": "2.5 to 4", "unit": "h"},
      {"measurement": "half-life", "setting": "[1]", "result": "22 to 30", "unit": "h"}
    ]},
    {"smiles": "COc1ccc2cc([C@H](C)C(=O)O)ccc2c1", "note": "[naproxen sodium]", "values": [
      {"measurement": "relapse rate", "setting": "[4]; 500 mg naproxen sodium alone, based solely on return of moderate or severe headache pain", "result": 26, "unit": "%"}
    ]},
    {"smiles": "COc1ccc2cc([C@H](C)C(=O)O)ccc2c1", "note": "[naproxen]", "values": [
      {"measurement": "sustained response rate", "setting": "[4]; responds initially and no relapse in twenty-four hours", "result": 46, "unit": "%"},
      {"measurement": "% with nausea", "setting": "[2]", "result": "(31.2%)"},
      {"measurement": "% with phonophobia", "setting": "[2]", "result": "(47.8%)"},
      {"measurement": "% with photophobia", "setting": "[2]", "result": "(57.5%)"},
      {"measurement": "Number with nausea", "setting": "[2]", "result": 77},
      {"measurement": "Number with phonophobia", "setting": "[2]", "result": 118},
      {"measurement": "Number with photophobia", "setting": "[2]", "result": 142},
      {"measurement": "patients with improvement from moderate or severe pain at baseline to mild or no pain", "setting": "[2]", "result": 46, "unit": "%"},
      {"measurement": "Sustained Response (Sustained Pain Response), percentage of subjects", "setting": "[2]", "result": 24.7, "unit": "%"},
      {"measurement": "Sustained Response (Sustained Pain Response), percentage of subjects", "setting": "[2]; listed as Naproxen", "result": "(24.7%)"},
      {"measurement": "Sustained Response (Sustained Pain Response), number of subjects", "setting": "[2]", "result": 61},
      {"measurement": "Sustained Pain Free responders, number of subjects", "setting": "[2]", "result": 29},
      {"measurement": "Sustained Pain Free responders, percentage of subjects", "setting": "[2]; pain score 0 at 2 hours and nothing more than 0 from 2 to 24 hours post dose without rescue", "result": "(11.7%)"},
      {"measurement": "therapeutic gain, Sustained Pain Free", "setting": "[2]", "result": 6.7, "unit": "%"},
      {"measurement": "therapeutic gain over placebo, sustained response", "setting": "[2]", "result": 8, "unit": "%"},
      {"measurement": "therapeutic gain over placebo, pain response", "setting": "[2]", "result": 19, "unit": "%"}
    ]},
    {"smiles": "O=C(O)CCc1nc(-c2ccccc2)c(-c2ccccc2)o1", "note": "[oxaprozin]", "values": [
      {"measurement": "half-life", "setting": "[1]", "result": "42 to 50", "unit": "h"},
      {"measurement": "half-life", "setting": "[1]; listed as Oxaprozin", "result": "42 to 50", "unit": "h"}
    ]},
    {"smiles": "CN1C(C(=O)Nc2ccccn2)=C(O)c2ccccc2S1(=O)=O", "note": "[piroxicam]", "values": [
      {"measurement": "time of dosing until steady state plasma concentrations are reached", "setting": "[1]; in vivo", "result": "7 to 12", "unit": "days"}
    ]},
    {"smiles": "CS(=O)(=O)c1ccc(C2=C(c3ccccc3)C(=O)OC2)cc1", "note": "[rofecoxib]", "values": [
      {"measurement": "time of peak plasma concentration after oral administration", "setting": "[1]", "result": "2 to 3", "unit": "h"},
      {"measurement": "half-life", "setting": "[1]", "result": "about 17 hours"}
    ]},
    {"smiles": "CNS(=O)(=O)Cc1ccc2[nH]cc(CCN(C)C)c2c1", "note": "[sumatriptan]", "values": [
      {"measurement": "24 hour sustained response", "setting": "[5]; % of 16 patients, relapse criteria including rescue medication", "result": 44, "unit": "%"},
      {"measurement": "number of patients with 24 hour sustained response", "setting": "[5]; of 16 patients, relapse criteria including rescue medication", "result": "seven"},
      {"measurement": "relapse rate", "setting": "[5]; re-analysed, based solely on return of moderate or severe headache pain", "result": 40, "unit": "%"},
      {"measurement": "relapse rate of responding patients", "setting": "[5]; relapse = return of moderate or severe pain or rescue medication within 22 hours after the 2 hour response", "result": 46, "unit": "%"},
      {"measurement": "sustained response rate", "setting": "[5]; responds initially and no relapse in twenty-four hours, criteria of the second study", "result": 56, "unit": "%"},
      {"measurement": "peak serum concentration", "setting": "[1]; oral doses of about 1-300 mg", "result": "1 to 300", "unit": "ng/mL"},
      {"measurement": "peak serum concentration", "setting": "[1]; subcutaneous injections of about 1 to 8 mg", "result": "1 to 150", "unit": "ng/mL"}
    ]},
    {"smiles": "Cc1onc(-c2ccccc2)c1-c1ccc(S(N)(=O)=O)cc1", "note": "[valdecoxib]", "values": [
      {"measurement": "time of peak plasma concentration after oral administration", "setting": "[1]", "result": "2 to 3", "unit": "h"},
      {"measurement": "half-life", "setting": "[1]", "result": "8 to 11", "unit": "h"}
    ]}
  ]
}
